Laboratory results as given in patent US9029518B2, “Method of extracting kaempferol-based antioxidants from Solenostemma arghel” (priority 2012, dated 2015).

What was measured:
[1] = tested on: carrageenan-induced rat paw edema; assay: Carrageenan-induced rat paw edema (anti-inflammatory); type: in vivo
Excerpt: The total alcohol (ethanol) extract was given at doses of 0.25, 0.5 and 1 g/kg, respectively, and fractions were given in doses of 0.25 g/kg. […]

[2] = tested on: response of mice to hot plate thermal stimulation; assay: Hot plate test (central analgesic activity); type: in vivo; conditions: for Latency (mean latency time until licking or jumping): time 0 min, hot plate 55° C.; for central analgesic activity compared with methamizol 0.05 g/kg: total ethanol extract 0.25, 0.5 and 1 g/kg, fractions 0.25 g/kg, C1 and C2 0.1 g/kg, I.P.
Procedure: The total alcoholic extract was given at doses of 0.25, 0.5 and 1.0 g/kg, respectively, fractions were given at doses of 0.25 g/kg, and compounds were given at doses of 0.1 g/kg. The effect of the alcoholic extract, fractions and isolated compounds are shown in FIGS. 3A, 3B and 3C, respectively, and given below in Table 3.
FIGS. 3A, 3B and 3C graphically illustrate the mean latency time (in seconds) until licking or jumping. This was recorded with mice being placed in a glass beaker, which was placed on a hot plate, which was maintained at 55° C. Measurements were taken 20, 60 and 90 minutes, respectively, after intraperitoneal injection of fractions (0.25 g/kg) and the isolated compounds (0.1 g/kg) from Solenostemma arghel, compared with the control group and methamizol.
This effect started after 20 min. and persisted for 90 min. after I.P. administration of the extracts.

[3] = tested on: acetic acid-induced writhes in mice; assay: Acetic acid-induced writhes in mice (peripheral analgesic activity); type: in vivo
[4] = DPPH free radical scavenging activity; type: biochemical
Procedure: The antipyretic activity was estimated using Brewer's yeast-induced hyperpyrexia in rats. Both water and total alcohol extracts were separately given orally at doses of 0.25, 0.5 and 1.0 g/kg, respectively. The antioxidant activity was evaluated using 2,2-diphenyl-1-picrylhydrazyl (DPPH) free radical scavenging activity. A 0.05 ml sample of the test compound was added to a methanol solution of DPPH (100 μM 2.95 ml) dissolved in methanol. The compound was added at different concentrations of 2, 4, 6, 8 and 10 mg/ml, respectively, as well as for water, and the total ethanol extracts and fractions. Concentrations of 1, 2, 3, 4 and 5 mg/ml were used for C1 and C2. Equal amounts of methanol were added to the control. Absorbance was recorded at 517 nm at regular intervals of 15 s for 5 min. Ascorbic acid (100 μM) was used as a standard.
The results are shown in Table 4 below, and in FIGS. 4A and 4B.
With regard to antioxidant activity (in vitro), all extracts were tested at concentrations of 2, 4, 6, 8 and 10 mg/ml.

Compound	Latency (mean latency time until licking or jumping) ([2]; dose 0.1 g/kg I.P.) [s]	central analgesic activity compared with methamizol 0.05 g/kg [2]	% inhibition of control ([1]; dose 0.1 g/kg oral, time 1 h) [%]	% inhibition of control ([1]; dose 0.1 g/kg oral, time 2 h) [%]	% inhibition of control ([1]; dose 0.1 g/kg oral, time 3 h) [%]	Radical scavenging activity (%) ± S.D. ([4]; concentration 1 mg/ml) [%]	Radical scavenging activity (%) ± S.D. ([4]; concentration 2 mg/ml) [%]	Radical scavenging activity (%) ± S.D. ([4]; concentration 3 mg/ml) [%]	Radical scavenging activity (%) ± S.D. ([4]; concentration 4 mg/ml) [%]	Radical scavenging activity (%) ± S.D. ([4]; concentration 5 mg/ml) [%]	% Protection of control ([3]; dose 0.1 g/kg oral) [%]	also measured
O=C(O)Cc1ccccc1Nc1c(Cl)cccc1Cl [Diclofenac sodium, diclofenac sodium, reference compound]												% inhibition of control ([1]; dose 0.03 g/kg, time 0 h (so in the source)): 30.24%; % inhibition of control ([1]; dose 0.03 g/kg, time 2 h): 48.42%; % inhibition of control ([1]; dose 0.03 g/kg, time 3 h): 54.69%
Cc1c(N(C)CS(=O)(=O)[O-])c(=O)n(-c2ccccc2)n1C.[Na+] [Methamizol, methamizol, reference compound]												Latency (mean latency time until licking or jumping) ([2]; dose 0.05 g/kg): 5.26 ± 0.94 s; % Protection of control ([3]; dose 0.05 g/kg): 52.32%
C[C@H]1O[C@H](OC[C@H]2O[C@@H](Oc3c(-c4ccc(O)cc4)oc4cc(O)cc(O)c4c3=O)[C@H](O)[C@@H](O)[C@@H]2O)[C@@H](O)[C@@H](O)[C@@H]1O [C2, kaempferol-3-rutinoside]	5.80 ± 0.79	significantly (P<0.05) greater than that of methamizol	62.50	70.02	53.60	30.28 ± 1.10	39.64 ± 0.88	65.30 ± 0.98	70.12 ± 1.01	86.50	68.90	
O=c1c(O[C@@H]2O[C@H](CO)[C@@H](O)[C@H](O)[C@H]2O)c(-c2ccc(O[C@@H]3O[C@H](CO)[C@@H](O)[C@H](O)[C@H]3O)cc2)oc2cc(O)cc(O)c12 [C1, kaempferol-3, 4′-diglucoside]	5.50 ± 0.85	significantly (P<0.05) greater than that of methamizol	59.06	71.31	53.93	26.51 ± 1.01	37.94 ± 0.98	52.63 ± 0.99	67.72 ± 1.12	83.40	59.02	
O=C1O[C@H]([C@@H](O)CO)C(O)=C1O [ascorbic acid, reference compound]												scavenging activity towards DPPH radicals ([4]; concentration 100 μM (standard)): 87.8%
